Laboratory results taken from the NIST ThermoML archive (doi:10.1021/acs.jced.7b01053).
“And” between values parts separate entries of the source, which are not always exact repeats. Equal values may be shown once.

Assay: mn = molality of the nth substance listed, in mol/kg
Conditions: 293 K, 100 kPa, Liquid, Alternating current cell with electrodes

CCCCC(=O)[O-].C[NH2+]CCO [2-hydroxy-N-methylethanaminium pentanoate] + O
Conditions	electrical conductivity [S/m]
m1 = 0.01138	0.049
m1 = 0.01396	0.062
m1 = 0.02431	0.098
m1 = 0.02742	0.113
m1 = 0.03923	0.149
m1 = 0.0421	0.165
m1 = 0.05224	0.191
m1 = 0.05579	0.209
m1 = 0.0607	0.269
m1 = 0.06705	0.238
m1 = 0.08075	0.293
m1 = 0.08328	0.31
m1 = 0.09553	0.335
m1 = 0.09605	0.33
m1 = 0.1092	0.375
m1 = 0.1095	0.408
m1 = 0.1224	0.445
m1 = 0.124	0.416
m1 = 0.1358	0.479
m1 = 0.1372	0.449
m1 = 0.1484	0.513
m1 = 0.1505	0.485
m1 = 0.1608	0.544
m1 = 0.1632	0.498
m1 = 0.1727	0.572
m1 = 0.1759	0.527
m1 = 0.1844	0.597
m1 = 0.1879	0.551
m1 = 0.1947	0.612
m1 = 0.1999	0.578
m1 = 0.2059	0.635
m1 = 0.2113	0.602
m1 = 0.2164	0.656
m1 = 0.2226	0.62
m1 = 0.226	0.677
m1 = 0.2329	0.642
m1 = 0.2359	0.697
m1 = 0.2427	0.663
m1 = 0.2451	0.709
m1 = 0.2523	0.682
m1 = 0.2541	0.727
m1 = 0.262	0.701
m1 = 0.2625	0.744
m1 = 0.2703	0.76
m1 = 0.2709	0.717
m1 = 0.2783	0.776
m1 = 0.2797	0.735
m1 = 0.2853	0.79
m1 = 0.2882	0.75
m1 = 0.2929	0.804
m1 = 0.2964	0.766
m1 = 0.2998	0.818
m1 = 0.304	0.781
m1 = 0.3065	0.83
m1 = 0.3114	0.794
m1 = 0.3129	0.842
m1 = 0.3184	0.808
m1 = 0.3191	0.853
m1 = 0.3249	0.868
m1 = 0.3255	0.819
m1 = 0.3307	0.88
m1 = 0.3317	0.834
m1 = 0.336	0.893
m1 = 0.3378	0.847
m1 = 0.3413	1.04
m1 = 0.3437	0.858
m1 = 0.3493	0.87
m1 = 0.3546	0.882

CCC(=O)[O-].C[NH2+]CCO [2-hydroxy-N-methylethanaminium propionate] + O
Conditions	electrical conductivity [S/m]
m1 = 0.01487	0.066
m1 = 0.0155	0.073
m1 = 0.03159	0.133
m1 = 0.03183	0.139
m1 = 0.04881	0.195
m1 = 0.0489	0.202
m1 = 0.06492	0.266
m1 = 0.06527	0.277
m1 = 0.08046	0.329
m1 = 0.08214	0.323
m1 = 0.09748	0.384
m1 = 0.09889	0.378
m1 = 0.1136	0.436
m1 = 0.1159	0.427
m1 = 0.1305	0.487
m1 = 0.1324	0.476
m1 = 0.1464	0.536
m1 = 0.1495	0.523
m1 = 0.1622	0.604
m1 = 0.1651	0.568
m1 = 0.1776	0.648
m1 = 0.1814	0.613
m1 = 0.1935	0.69
m1 = 0.1966	0.654
m1 = 0.2081	0.727
m1 = 0.2121	0.694
m1 = 0.223	0.764
m1 = 0.2264	0.702
m1 = 0.237	0.798
m1 = 0.2408	0.721
m1 = 0.25	0.829
m1 = 0.2542	0.723
m1 = 0.2632	0.872
m1 = 0.2677	0.786
m1 = 0.2756	0.908
m1 = 0.28	0.814
m1 = 0.2879	0.933
m1 = 0.2922	0.834
m1 = 0.2994	0.957
m1 = 0.3036	0.86
m1 = 0.3106	0.98
m1 = 0.3149	0.906
m1 = 0.3211	1
m1 = 0.3255	0.923
m1 = 0.3317	1.02
m1 = 0.3357	0.946
m1 = 0.3415	1.04
m1 = 0.3454	0.967
m1 = 0.3511	1.06
m1 = 0.355	0.987
m1 = 0.3602	1.08
m1 = 0.364	1.01
m1 = 0.3691	1.09
m1 = 0.3726	1.03
m1 = 0.3774	1.11
m1 = 0.3808	1.05
m1 = 0.3856	1.13
m1 = 0.3885	1.05
m1 = 0.3933	1.15
m1 = 0.396	1.07
m1 = 0.4009	1.17
m1 = 0.4032	1.09
m1 = 0.4079	1.19
m1 = 0.4098	1.09
m1 = 0.4148	1.21
m1 = 0.4165	1.11
m1 = 0.4227	1.12

CCC(=O)[O-].[NH3+]CCO [2-hydroxyethan-1-aminium propionate] + O
Conditions	electrical conductivity
m1 = 0.01786	0.107 S/m
m1 = 0.022	0.116 S/m
m1 = 0.03491	0.198 S/m
m1 = 0.04447	0.218 S/m
m1 = 0.05416	0.312 S/m
m1 = 0.06841	0.338 S/m
m1 = 0.0728	0.4 S/m
m1 = 0.09126	0.43 S/m
m1 = 0.0929	0.485 S/m
m1 = 0.1121	0.574 S/m
m1 = 0.1137	0.521 S/m
m1 = 0.1322	0.658 S/m
m1 = 0.1373	0.612 S/m
m1 = 0.1504	0.74 S/m
m1 = 0.1594	0.695 S/m
m1 = 0.1692	0.821 S/m
m1 = 0.1822	0.78 S/m
m1 = 0.188	0.897 S/m
m1 = 0.2038	0.845 S/m
m1 = 0.2067	0.982 S/m
m1 = 0.2263	0.921 S/m
m1 = 0.2328	1.08 S/m
m1 = 0.2472	0.991 S/m
m1 = 0.2532	1.16 S/m
m1 = 0.268	1.06 S/m
m1 = 0.2729	1.24 S/m
m1 = 0.2877	1.12 S/m
m1 = 0.2905	1.3 S/m
m1 = 0.3074	1.18 S/m and 1.37 S/m
m1 = 0.3237	1.43 S/m
m1 = 0.3251	1.24 S/m
m1 = 0.3388	1.48 S/m
m1 = 0.3427	1.29 S/m
m1 = 0.3534	1.53 S/m
m1 = 0.3594	1.34 S/m
m1 = 0.3669	1.58 S/m
m1 = 0.3755	1.39 S/m
m1 = 0.3798	1.63 S/m
m1 = 0.3905	1.43 S/m
m1 = 0.3917	1.67 S/m
m1 = 0.4032	1.71 S/m
m1 = 0.4055	1.48 S/m
m1 = 0.4138	1.74 S/m
m1 = 0.4195	1.51 S/m
m1 = 0.424	1.78 S/m
m1 = 0.4334	1.55 S/m
m1 = 0.4465	1.59 S/m
m1 = 0.4591	1.62 S/m
m1 = 0.4709	1.65 S/m
m1 = 0.4825	1.67 S/m
m1 = 0.5351	1.82 S/m
m1 = 0.5473	1.85 S/m
m1 = 0.5594	1.89 S/m
m1 = 0.5705	1.93 S/m
